The structures appear in SMILES notation. ≈ marks a conversion by molar mass, not a printed value. Like-named read-outs stand apart in the source and are kept apart here.

What all share (type): in vivo
For one series, the system named is H. elegans larvae. Briefly: inhibition of larvae settlement of H. elegans. Particulars: for EC50: Hydroides elegans, read-out: EC50 (larval settlement); for LC50/EC50: H. elegans, ratio >10 regarded as non-toxic. How it is done:
(§1) The four amide compounds were tested for their abilities to inhibit larvae settlement of the H. elegans, using an experimental model of inhibition of larvae settlement H. elegans (Zhang Y., Xiao K., Qian P. Y., et al. 2D gel-based multiplexed proteomic analysis during larval development and metamorphosis of the biofouling polychaete tubeworm Hydroides elegans. Journal of proteome research. 2010, 9(9), 4851-4860). Adults of H. elegans were collected from Yung Shue O, Hong Kong (22° 25′N, 114° 16′E). The H. elegans larvae were reared according to Qian and Pechenik (Bryan P. J., Qian P. Y., Kreider J. L.; Chia F. S. Induction of larval settlement and metamorphosis by pharmacological and conspecific associated compounds in the serpulid polychaete Hydroides elegans. Marine ecology progress series. 1997, 146: 81-90; Qiu, J. W.; Qian, P. Y. Combined effects of salinity, temperature and food on early development of the polychaete Hydroides elegans. Marine ecology progress series. 1997, 152: 79-88). Briefly, they were reared for 4 days until they reach the settlement-competent stage on a diet of chrysophyte Isochrysis galbana under an aerated condition and a 15 h light/9 h dark photoperied at 25° C. Because the attachment of H. elegans larvae requires to be induced by marine biofilm (Carpizo-Ituarte and Hadfield 1998), 24-well plates were suspended in laboratory tanks supplied with running seawater for 6 days until each well of every plate had accumulated sufficient biofilm. About fifteen (15±3) competent larvae were added to each biofilmed well of a plate containing 1.0 mL test solution containing samples at known concentrations. The 24-well plates were incubated at 28° C. for 48 h under a 15 h light/9 h dark photoperied. The percentage of larvae settlement and larvae mortality was determined by counting the settled, live individuals under a dissecting microscope. Three replicates were run for each sample. The EC50 was calculated as the concentration where 50% of the larval population was inhibited to settle as compared to the control, while LC50 was calculated as the concentration where 50% of the larval population was dead. The experiment was performed in quadruplicate. The experiment results of the inhibitory effect of the four Compounds 1-4 on larvae settlement of H. elegans were shown in FIGS. 3, 6, 9, and 12, respectively.

Series [1] can be described thus: inhibition of larvae settlement of H. elegans. Particulars: Hydroides elegans (polychaete tubeworm) larvae, in vivo, H. elegans larvae, 48 h. How it is done:
as §1

Series [2] can be described thus: inhibition of larvae settlement of B. neritina. As to conditions: Bugula neritina (bryozoan) larvae, in vivo, B. neritina larvae, 24 h. The method, then:
(§2) Adult B. neritina colonies were placed in a 12 L tank filled with 8 L filtered seawater under a bright artificial light for 1 h to induce the release of their photo-tactic larvae that were able to shortly attach and metamorphose. The actively swimming larvae were collected and added to the test solutions contain different concentrations of samples in 24-well plates at about fifteen (15±3) larvae per well. They were then incubated in the dark at room temperature for 24 h before counting the number of attached and unattached larvae under a dissecting microscope. […] The experiment was performed in quadruplicate.

Another series has as its system B. neritina larvae. Briefly: inhibition of larvae settlement of B. neritina. As to conditions: for LC50/EC50: B. neritina, ratio >10 regarded as non-toxic; for EC50: Bugula neritina, read-out: EC50 (larval settlement). The method, then: as §2
A short description of a further series: in vivo. Particulars: Balanus amphitrite (barnacle) cyprid larvae, in vivo, B. amphitrite cyprids, 48 h, concentration where 50% of larvae dead. The method, then:
(§3) They were kept in sea water at room temperature in lab under light illumination to induce the release of nauplii larvae. These newly released nauplii were reared to the cyprid stage on a diet of Chaetoceros gracilis Schutt at 28° C. for about 3 days until they developed into cyprids, which were ready to settle. The cyprids were collected using a 120 μm mesh sieve. Each sample of the exacts was dissolved in a small amount of DMSO and then transferred into filtered seawater to make up the test solution with a known concentration. About fifteen (15±3) cyprids per well were incubated in the dark for 48 h in a 24-well plate filled with 1 ml testing solutions per well. The numbers of the settled and swimming larvae were counted under a dissecting microscope. Three replicates were run for each sample. […] The experiment was performed in quadruplicate.
as §3, with “Each compound” for “Each”, “sample” for “sample of the exacts”

In the next series the test system is B. amphitrite cyprids. Briefly: whole plant or invertebrate. As to conditions: for EC50: Amphibalanus amphitrite, 48 h, read-out: EC50 (larval settlement); for LC50/EC50: B. amphitrite, ratio >10 regarded as non-toxic. The method, then:
as §3
as §3, with “Each compound” for “Each”, “sample” for “sample of the exacts”

[3] abbreviates: 48 h, H. elegans larvae, biofilmed wells, 48 h.
Setting [4] is: other: immersion in test solution.
Where [5] appears, read: B. amphitrite cyprids, concentration where 50% of larvae inhibited to settle vs control.

`CC(C)CNC(=O)/C=C/C=C/CCCCCC/C=C/c1ccc2c(c1)OCO2` [Compound 4, (2E,4E,12E)-N-isobutyl-13-(3′,4′-methylenedioxyphenyl)-tridecatrienamide]: the “EC50 (larval settlement)” value in the series on H. elegans larvae (H. elegans larvae, biofilmed wells, 48 h) is more than 20.0 µg/mL. In addition, the figures for the EC50 in the series on H. elegans larvae (48 h), in the series with B. neritina larvae (24 h) and with B. amphitrite cyprids were more than 20 µg/mL, 5.7 ± 1.5 µg/mL (≈ 14.9 µM) and 16.6 ± 2.9 µg/mL (≈ 43.3 µM), respectively. For the same molecule, the LC50 at 48 h in series [1] is more than 100 µg/mL; in “in vivo”, more than 200 µg/mL. In addition, the LC50 at 24 h in series [2] is more than 100 µg/mL. Also, the figures for the LC50/EC50 in the series with B. neritina larvae and in the series on B. amphitrite cyprids were more than 17.6 and more than 12.1, respectively.
As for `O=C(CCCCCC/C=C/c1ccc2c(c1)OCO2)N1CCCCC1` [Compound 1, 1-[1-oxo-9-(3′,4′-methylenedioxyphenyl)-8E-nonenyl]-piperine], the LC50/EC50 in the series with H. elegans larvae is more than 49.5; in the series on B. neritina larvae it was more than 14.7; in the series with B. amphitrite cyprids, more than 86.9. For the same molecule, the concentration giving a half-maximal response (EC50) in the series with H. elegans larvae (setting [3]) was found to be 1 ± 0.4 µg/mL (≈ 2.91 µM); in the series with B. amphitrite cyprids (setting [5]), 1.1 ± 0.3 µg/mL (≈ 3.2 µM). For the same molecule, the LC50 at 48 h is more than 50 µg/mL in series [1] (setting [4]) and more than 100 µg/mL in “in vivo” (setting [4]). For the same molecule, in series [2] (setting [4]), the LC50 at 24 h is more than 10 µg/mL. In the series with B. neritina larvae (B. neritina larvae, 24 h), the “EC50 (larval settlement)” value was 0.7 ± 0.2 µg/mL (≈ 2.04 µM).
Consider `O=C(/C=C/C=C/c1ccc2c(c1)OCO2)N1CCCCC1` [Compound 2, 1-[1-oxo-5-(3′,4′-methylenedioxyphenyl)-2,4-pentadienoyl]-piperidine], for which the LC50/EC50 in the series with H. elegans larvae is recorded as more than 38.5; in the series on B. neritina larvae it was more than 30.3; in the series on B. amphitrite cyprids, more than 71.4. Further, the EC50 in the series with H. elegans larvae (setting [3]) is 1.3 ± 0.8 µg/mL (≈ 4.56 µM); in the series on B. neritina larvae (24 h, B. neritina larvae, 24 h), 1.6 ± 0.7 µg/mL (≈ 5.61 µM); in the series with B. amphitrite cyprids (setting [5]) it was 1.4 ± 0.6 µg/mL (≈ 4.91 µM). The 50% lethal concentration (LC50) at 48 h in series [1] was more than 50 µg/mL; in the series “in vivo”, more than 100 µg/mL. The molecule also gave an LC50 at 24 h in series [2] of more than 50 µg/mL.
Take `O=C(/C=C/C=C/CCc1ccc2c(c1)OCO2)N1CCCCC1` [Compound 3, 1-[1-oxo-7-(3′,4′-methylenedioxyphenyl)-2E,4E-heptadienyl]-piperine]: the figures for the LC50/EC50 with H. elegans larvae, in the series on B. neritina larvae and in the series on B. amphitrite cyprids were more than 13.7, more than 11.7 and more than 24.0, respectively. The EC50 stood at 7.3 ± 1.6 µg/mL (≈ 23.3 µM) in the series with H. elegans larvae (setting [3]); 8.5 ± 2.1 µg/mL (≈ 27.1 µM) in the series on B. neritina larvae (24 h, B. neritina larvae, 24 h); 4.2 ± 1.3 µg/mL (≈ 13.4 µM) in the series with B. amphitrite cyprids (setting [5]). In addition, the LC50 at 48 h (in series [1] (setting [4]); in the series “in vivo” (setting [4])) was more than 100 µg/mL in each case. This molecule also registered an LC50 at 24 h in series [2] (setting [4]) of more than 100 µg/mL.

As usually defined, the EC50 is the concentration that produces a half-maximal response. One may read the LC50 as the concentration that kills 50% of the test population. A higher LC50 goes with a less lethal substance.

For the origin of these results see patent US9131691B2, “Use of amide compounds for preventing marine biofouling” (The Hong Kong University of Science and Technology, priority 2011, dated 2015).
